Experimental findings from patent publication US20240042066A1, “FIBROBLAST ACTIVATION PROTEIN INHIBITOR” (BOOMRAY PHARMACEUTICALS CO., LTD., priority 2020, published 2024) are described below.

For data set [1], the system named is PDX mouse model of pancreatic cancer. The experiment in a line: Long-duration PET imaging with 86Y-TEFAPI-06 in a PDX mouse model of pancreatic cancer. In kind it is in vivo. To be noted: after 18 hours. Here is the method: Y-86 is a positron nuclide with half-life of 14.6 hours and can be radiolabeled with DOTA, and therefore, is very suitable for long-duration detection of the distribution of TEFAPI molecule in vivo. 1 mL of Y-86 hydrochloric acid was taken, 100 μL of 3M sodium hydroxide and 130 μL of 3M sodium acetate were added to adjust acidity, the final pH was 4.0, 50 μg of TEFAPI-06 precursor was added, and the reaction mixture was heated to 90° C., and maintained at the temperature for 10 minutes. The reaction solution was passed through a C18 column to remove free ions, and then the C18 column was eluted with ethanol solution. Labeled ^86Y-TEFAPI-06 was obtained. The labeled ^86Y-TEFAPI-06 was diluted with normal saline, and 7.4 Mbq of the resulting solution was injected to each mouse. PET scanning imaging was performed at 0.5, 2, 6, 12, 18, 24 and 36 h after injection, and PET image processing software was used for reconstruction. The obtained PET image is shown in FIG. 3, SUV values were marked at the tumor and heart of the mouse, and a curve was obtained based on the change of the SUV value with time.

Data set [2] concerns PDX pancreatic cancer. The experiment in a line: Treatment of PDX pancreatic cancer in mice with 177Lu-TEFAPI-06. In kind it is in vivo. To be noted: Lu-177 label, treatment dose 3.7 MBq. From the text: There were 5 mice in each group. The treatment dose was 3.7 MBq. […] In order to evaluate the therapeutic effect, the inventors performed physical examination via FAPI-04 imaging on mice before and after the treatment, and the results are shown in FIG. 5.

Data set [3] relates to FAP. Description: Competitive inhibition experiment of TEFAPI-06 in mice with PDX pancreatic cancer (68Ga-FAPI-04 PET). In kind it is in vivo. Here is the method: In order to verify the specificity of TEFAPI-06 against a FAP target, the inventors performed PET imaging on the same batch of mice before and after inhibition in the competitive inhibition experiment. According to the Y-86 long-duration PET imaging, the uptake of the tumor reached a peak between 18 hours and 24 hours after drug injection. Therefore, ^68Ga-FAPI-04 imaging was first performed on tumor-bearing mice to determine that the mice had tumor uptake. After 48 hours of standing to ensure metabolism of ^68Ga-FAPI-04, two mice were injected with 300 μg of TEFAPI-06 molecules, and 18 hours after injection, PET molecular imaging of ^68Ga-FAPI-04 was performed on the mice injected with TEFAPI-06 molecules.

The nature of data set [4]: Determination of the half-life in vivo by imaging healthy mice with 68Ga-TEFAPI-06. The following applies: PET imaging, SUV at the heart, 68Ga label, tail vein injection; for half-life: mouse, blood, intravenous, 37 MBq. The method, then: A germanium-gallium generator was eluted with 5 mL of 0.6 M high-purity hydrochloric acid to obtain Ga-68 hydrochloric acid solution. 1 mL of the eluted Ga-68 solution was taken, 100 μL of 3M sodium hydroxide and 130 μL of 3M sodium acetate were added to adjust the acidity, the final pH was 4.0, 50 μg of TEFAPI-06 precursor was added, and the reaction mixture was heated to 90° C., and maintained at the temperature for 10 minutes. The reaction solution was passed through a C18 column to remove free ions, and then the C18 column was eluted with ethanol solution. Labeled ^68Ga-TEFAPI-06 was obtained.
37 MBq labeled product was taken, 200 μL of normal saline was added for dilution, the drug was drawn with an insulin syringe for later use, and ethanol content in the drug was not higher than 5%. Healthy mice were anesthetized in advance and then placed on a PET/CT collection bed and an indwelling needle was placed at the tail vein. The syringe was attached to the indwelling needle, and collection of PET data was started at the zero moment of needle pushing. Collection time points were 0-60 min, 2 h, 3 h, 4 h, and 5 h respectively. After the collection, the data was reconstructed with professional software, and reconstruction conditions were to reconstruct the data at intervals of every minute for the first 5 minutes, reconstruct the data every 5 minutes in 5-60 minutes, and reconstruct the data at each of the other time points. The collected data was processed by PET reconstruction software to obtain continuous image. In PET processing software, a fixed region was depicted at the heart of the mouse, and SUV-Mean and SUV-Max values at the heart were obtained. The obtained SUV was simulated via data processing software.

In the case of `N#C[C@@H]1CC(F)(F)CN1C(=O)CNC(=O)c1ccnc2ccc(OCCCN3CCN(C(=O)[C@H](CCCCNC(=O)CN4CCN(CC(=O)O)CCN(CC(=O)O)CCN(CC(=O)O)CC4)NC(=O)CCCC(=O)NC(CCCCNC(=O)CCCc4ccc(I)cc4)C(=O)O)CC3)cc12` (some centres unmarked) [TEFAPI-06], in data set [1], the kidney metabolism entry is reported as “basically cleared” and the “tumor/normal tissue uptake ratio” value was “greater than 10”. Further, the “tumor growth (tumor growth curve)” value in data set [2] is reported as “significantly inhibited”. Also, the “tumor uptake of 68Ga-FAPI-04 after injection of TEFAPI-06 (inhibition)” value in data set [3] (300 μg TEFAPI-06, 18 hours before 68Ga-FAPI-04 PET, read 30 minutes after injection) was “basically no additional uptake at the tumor”. Besides, the “target site (specificity)” value in data set [3] (conclusion of competitive inhibition experiment) was “FAP”. Further, in data set [4], the blood half-life amounted to 6.63 h and the half-life (in general, the time needed for the level to fall by half in the phase considered) turned out to be 6.67 h.
In data set [4], `N#C[C@@H]1CC(F)(F)CN1C(=O)CNC(=O)c1ccnc2ccc(OCCCN3CCN(C(=O)CN4CCN(CC(=O)O)CCN(CC(=O)O)CCN(CC(=O)O)CC4)CC3)cc12` [FAPI-04, reference compound] gave a half-life of 0.433 h.
